Where a SMILES comes first, the peptide text is derived from it. The star is where a group is joined. Cbz = O=C(OCc1ccccc1)*
Tests used:
[1] = target: Chymotrypsinogen A (Bos taurus) (UniProt P00766); assay: The compound was tested for the inhibition of alpha-Chymotrypsin, activity expressed as IC50
[2] = target: Chymotrypsinogen A (Bos taurus) (UniProt P00766); assay: as above; remark: listed apart in the source

IC50 [1]: 950 nM
Ki [2]: 2200 nM
Compound: C[C@H](NC(=O)OCc1ccccc1)C(=O)N[C@@H](C)C(=O)N[C@H](C=O)Cc1ccccc1 [{1-[1-(1-Benzyl-2-oxo-ethylcarbamoyl)-ethylcarbamoyl]-ethyl}-carbamic acid benzyl ester] (Cbz-Ala-Ala-Phe-aldehyde)

Reference: BindingDB's records for doi:10.1016/S0960-894X(97)00091-7 (1997)
